Key:
Assay in all cases: relative viability (nuclei count vs DMSO), 5 days (fraction); higher = more cells survive
XMD8-85 + Olaparib = compound: CN1CCN(CC1)C2=CC(=C(C=C2)NC3=NC=C4C(=N3)N(C5=CC=CC=C5C(=O)N4C)C)OC [XMD8-85] + O=C(c1cc(Cc2n[nH]c(=O)c3ccccc23)ccc1F)N1CCN(C(=O)C2CC2)CC1 [Olaparib] (partner 8 µM)
Method in brief: (§1)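 Relative viability divides the nuclei count in treated wells by that in vehicle wells. Lung cancer cell lines were seeded in 1536-well plates, dosed by pin tool the next day, and fixed and stained after 5 days in one step with final 0.05% Triton X-100, 1% formaldehyde and 1 ug/ml Hoechst. Dosing was a single drug or a fixed anchor-drug dose plus five library-drug doses (not always all listed) in √10 steps, and values are medians of duplicate plates imaged at 4×.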

4EGI-1 + Foretinib = compound: O=C(O)C(Cc1ccccc1[N+](=O)[O-])=NNc1nc(-c2ccc(Cl)c(Cl)c2)cs1 (mixture of isomers) [4EGI-1] + COc1cc2c(Oc3ccc(NC(=O)C4(C(=O)Nc5ccc(F)cc5)CC4)cc3F)ccnc2cc1OCCCN1CCOCC1 [Foretinib] (partner 0.25 µM)
Method in brief: as §1

4EGI-1 + Crizotinib = compound: O=C(O)C(Cc1ccccc1[N+](=O)[O-])=NNc1nc(-c2ccc(Cl)c(Cl)c2)cs1 (mixture of isomers) [4EGI-1] + C[C@@H](Oc1cc(-c2cnn(C3CCNCC3)c2)cnc1N)c1c(Cl)ccc(F)c1Cl [Crizotinib] (partner 1 µM)
Method in brief: as §1

XMD8-85 + AZD7762 = compound: CN1CCN(CC1)C2=CC(=C(C=C2)NC3=NC=C4C(=N3)N(C5=CC=CC=C5C(=O)N4C)C)OC [XMD8-85] + NC(=O)Nc1cc(-c2cccc(F)c2)sc1C(=O)N[C@H]1CCCNC1 [AZD7762] (partner 0.2 µM)
Method in brief: as §1

Cell Line	relative viability (XMD8-85 + Olaparib; first compound 0.08 µM)	relative viability (XMD8-85 + Olaparib; first compound 0.253 µM)	relative viability (XMD8-85 + Olaparib; first compound 0.8 µM)	relative viability (XMD8-85 + Olaparib; first compound 2.53 µM)	relative viability (XMD8-85 + Olaparib; first compound 8 µM)	relative viability (4EGI-1 + Foretinib; first compound 0.5 µM)	relative viability (4EGI-1 + Foretinib; first compound 1.581 µM)	relative viability (4EGI-1 + Foretinib; first compound 5 µM)	relative viability (4EGI-1 + Foretinib; first compound 15.81 µM)	relative viability (4EGI-1 + Foretinib; first compound 50 µM)	relative viability (4EGI-1 + Crizotinib; first compound 0.5 µM)	relative viability (4EGI-1 + Crizotinib; first compound 1.581 µM)	relative viability (4EGI-1 + Crizotinib; first compound 5 µM)	relative viability (4EGI-1 + Crizotinib; first compound 15.81 µM)	relative viability (4EGI-1 + Crizotinib; first compound 50 µM)	relative viability (XMD8-85 + AZD7762; first compound 0.08 µM)	relative viability (XMD8-85 + AZD7762; first compound 0.253 µM)	relative viability (XMD8-85 + AZD7762; first compound 0.8 µM)	relative viability (XMD8-85 + AZD7762; first compound 2.53 µM)	relative viability (XMD8-85 + AZD7762; first compound 8 µM)
NCI-H520	0.343	0.366	0.293	0.305	0.236	0.89	0.812	0.937	0.875	0.638	0.963	0.868	1.02	0.642	0.648	–	–	–	–	–
NCI-H647	0.573	0.378	0.605	0.408	0.118	1.44	–	1.18	1.24	0.66	1.05	1.05	1.16	0.656	0.155	0.306	0.371	0.586	0.503	0.198
201T	0.889	0.811	0.886	0.866	0.73	1.2	0.861	1.18	0.985	0.63	1.06	0.98	1.01	1.01	1.02	0.566	0.651	0.669	0.698	0.575
COR-L 105	0.7	–	0.692	0.58	0.455	0.983	0.172	0.993	0.863	0.728	0.722	0.626	0.789	0.887	0.784	–	–	–	–	–
IA-LM	0.862	0.885	0.836	1.07	0.207	1.25	1.04	0.966	0.663	0.0865	0.903	0.629	0.569	0.112	0.0835	–	–	–	–	–
LCLC-97TM1	0.433	0.285	0.359	0.477	0.201	0.926	0.725	0.941	0.936	0.127	0.445	–	0.397	0.302	0.172	0.207	0.171	0.304	0.286	0.293
NCI-H1944	0.39	0.393	0.44	0.402	0.338	0.894	–	0.974	0.782	0.655	1.18	–	1.01	0.981	0.599	0.585	0.585	0.475	0.543	0.462
EPLC-272H	0.853	0.579	0.747	0.458	0.387	0.721	–	0.735	1.26	0.132	0.929	0.505	1.03	0.94	0.947	0.209	0.16	0.362	0.229	0.273
NCI-H2342	0.421	0.466	0.359	0.487	0.408	1.15	1.06	1.2	1.05	0.831	–	–	–	–	–	0.509	0.478	0.552	0.511	0.488
NCI-H1648	0.857	1.14	0.919	0.482	0.861	–	–	–	–	–	–	–	–	–	–	0.483	0.572	0.587	0.717	0.726
NCI-H1437	0.611	0.62	0.657	0.611	0.439	1.25	1.12	1.24	1.04	0.521	0.931	0.9	0.77	0.837	0.315	1.11	1.13	1.15	1.09	0.886
LU99A	0.247	0.154	0.238	0.242	0.218	0.817	0.605	0.856	0.616	0.551	0.657	–	0.677	0.463	0.215	0.328	0.504	0.407	0.378	0.341
NCI-H1993	–	0.942	1	1.07	0.792	0.812	0.7	0.708	0.684	0.614	0.943	0.776	0.92	0.629	0.688	0.772	0.716	0.959	0.844	0.818
NCI-H838	0.796	0.749	0.898	0.778	0.279	1.03	–	1.13	1.04	0.369	0.843	–	0.905	0.706	0.378	0.972	0.987	0.915	0.856	0.868
NCI-H322M	0.912	0.795	0.899	0.71	0.647	1.03	–	1.13	0.816	0.342	0.947	0.815	1.02	0.823	1.02	0.566	0.606	0.568	0.451	0.38
NCI-H3122	0.574	0.673	0.691	0.762	0.676	0.897	0.897	0.927	0.986	0.684	0.274	0.262	0.281	0.24	0.221	1.05	1.08	1.05	1.06	1.14
NCI-H1703	0.308	–	0.427	0.42	0.312	0.38	0.373	0.348	0.349	0.326	0.754	0.597	0.681	0.521	0.269	0.107	0.147	0.133	0.119	0.107
HCC-15	0.745	0.67	0.7	0.699	0.64	1.07	–	1.11	0.94	0.481	0.831	0.893	0.858	0.776	0.598	1.16	1.06	1.13	1.12	1.02
